Key:
Histamine H3 receptor [1] = biological target: Histamine H3 receptor (Rattus norvegicus, UniProt Q9QYN8); experiment: Displacement of N-[3H]methylhistamine from histamine H3 receptor in rat cortex membrane; type: cell membranes
[2] = Bioavailability in rat at 10 mg/kg, po; type: ADME, organism-based; details: in vivo
[3] = Tmax in rat at 10 mg/kg, po; type: ADME, organism-based; parameters: dose 10 mg/kg, route oral; details: in vivo
[4] = Half life in rat at 10 mg/kg, po; type: ADME, organism-based; parameters: dose 10 mg/kg, route oral; details: in vivo
Histamine H3 receptor [5] = biological target: T1, Histamine H3 receptor (Homo sapiens, UniProt Q9Y5N1); experiment: Inverse agonist activity at human H3 receptor expressed in CHOK1 cells by GTPgammaS binding assay; type: functional, cell-based, CHO-K1
T1 sequence (Q9Y5N1 whole entry): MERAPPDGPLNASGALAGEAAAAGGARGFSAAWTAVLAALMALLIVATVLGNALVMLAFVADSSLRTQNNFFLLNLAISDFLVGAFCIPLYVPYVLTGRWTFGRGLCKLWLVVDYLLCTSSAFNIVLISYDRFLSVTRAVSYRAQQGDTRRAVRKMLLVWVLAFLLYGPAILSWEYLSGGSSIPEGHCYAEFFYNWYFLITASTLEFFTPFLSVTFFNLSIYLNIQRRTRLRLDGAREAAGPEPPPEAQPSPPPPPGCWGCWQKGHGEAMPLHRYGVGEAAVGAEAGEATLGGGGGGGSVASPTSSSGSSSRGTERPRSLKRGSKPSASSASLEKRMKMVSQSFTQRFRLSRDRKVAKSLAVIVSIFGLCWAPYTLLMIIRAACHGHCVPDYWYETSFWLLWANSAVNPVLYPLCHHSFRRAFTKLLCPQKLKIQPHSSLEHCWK

Histamine H3 receptor [6] = biological target: T1, Histamine H3 receptor; experiment: Antagonist activity at human histamine H3 receptor expressed in CHOK1 cells by [3H]R(-)-alpha-methylhistamine displacement assay; type: cell-based, CHO-K1
Rattus norvegicus = organism: Rattus norvegicus; experiment: Inhibition of R(-)-alpha-methylhistamine-induced drinking response in rat dipsogenia model after 0.5 hrs; type: functional, organism-based

Chain of Histamine H3 receptor (Rattus norvegicus, UniProt Q9QYN8) (Q9QYN8 whole entry): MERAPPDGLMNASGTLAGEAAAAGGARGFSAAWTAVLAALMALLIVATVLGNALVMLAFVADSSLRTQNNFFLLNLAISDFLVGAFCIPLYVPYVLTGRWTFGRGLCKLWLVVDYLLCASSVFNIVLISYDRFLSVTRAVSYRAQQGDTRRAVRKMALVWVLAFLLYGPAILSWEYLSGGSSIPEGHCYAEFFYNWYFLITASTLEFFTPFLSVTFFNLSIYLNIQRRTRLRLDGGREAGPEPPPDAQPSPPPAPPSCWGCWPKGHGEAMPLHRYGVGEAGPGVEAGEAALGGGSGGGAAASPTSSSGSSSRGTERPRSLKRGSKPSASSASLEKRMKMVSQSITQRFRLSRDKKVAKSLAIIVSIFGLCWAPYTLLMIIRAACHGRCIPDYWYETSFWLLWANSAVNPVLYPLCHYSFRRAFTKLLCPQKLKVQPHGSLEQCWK

Ki (Histamine H3 receptor [1]) [nM] | Compound | further results
6 | O=C(c1cccnc1)N1C[C@@H]2CC=C(c3ccc(CCN4CCCC4)cc3)[C@@H]2C1 | –
6 | O=C(CO)N1C[C@@H]2CC=C(c3ccc(CCN4CCCC4)cc3)[C@@H]2C1 | bioavailability [2]: 39%; Tmax [3]: 0.6 h; half-life [4]: 1.8 h
17 | O=S(=O)(c1ccccc1)N1C[C@@H]2CC=C(c3ccc(CCN4CCCC4)cc3)[C@@H]2C1 | –
5 | CC(C)C(=O)N1C[C@@H]2CC=C(c3ccc(CCN4CCCC4)cc3)[C@@H]2C1 | –
21 | O=C(c1ccccc1)N1C[C@@H]2CC=C(c3ccc(CCN4CCCC4)cc3)[C@@H]2C1 | –
27 | CS(=O)(=O)N1C[C@@H]2CC=C(c3ccc(CCN4CCCC4)cc3)[C@@H]2C1 | –
0.3 | C[C@@H]1CCCN1CCc1ccc(C2=CC[C@H]3CN(C(=O)Cc4ccccc4)C[C@@H]23)cc1 | –
13 | CN(C)C(=O)N1C[C@@H]2CC=C(c3ccc(CCN4CCCC4)cc3)[C@@H]2C1 | –
12 | CC(C)S(=O)(=O)N1C[C@@H]2CC=C(c3ccc(CCN4CCCC4)cc3)[C@@H]2C1 | bioavailability [2]: 3%; Tmax [3]: 0.2 h; half-life [4]: 5 h
7 | O=C(Cc1ccccc1)N1C[C@@H]2CC=C(c3ccc(CCN4CCCC4)cc3)[C@@H]2C1 | –
12 | O=S(=O)(Cc1ccccc1)N1C[C@@H]2CC=C(c3ccc(CCN4CCCC4)cc3)[C@@H]2C1 | –

Second part, the compound before the results:

Compound | Ki (Histamine H3 receptor [1]) [nM] | further results
CC(C)NC(=O)N1C[C@@H]2CC=C(c3ccc(CCN4CCCC4)cc3)[C@@H]2C1 | 20 | bioavailability [2]: 22%; Tmax [3]: 0.3 h; half-life [4]: 7.3 h
C[C@@H]1CCCN1CCc1ccc(C2=CC[C@H]3CN(C(=O)c4ccccc4)C[C@@H]23)cc1 | 3 | –
O=C(C1CCOC1)N1C[C@@H]2CC=C(c3ccc(CCN4CCCC4)cc3)[C@@H]2C1 (stereo not given in full) | 4 | –
C[C@@H]1CCCN1CCc1ccc(C2=CC[C@H]3CN(C(=O)c4cccnc4)C[C@@H]23)cc1 | 1 | –
CC(C)C(=O)N1C[C@@H]2CC=C(c3ccc(CCN4CCC[C@H]4C)cc3)[C@@H]2C1 | 0.4 | –
C[C@@H]1CCCN1CCc1ccc(C2=CC[C@H]3CN(C(=O)C4CCOCC4)C[C@@H]23)cc1 | 0.7 | bioavailability [2]: 66%; Tmax [3]: 0.3 h; Ki (Histamine H3 receptor [5]): 4 nM; half-life [4]: 2.5 h; Ki (Histamine H3 receptor [6]): 2 nM; Activity (Rattus norvegicus): Dose-dependent effect
C[C@@H]1CCCN1CCc1ccc(C2=CC[C@H]3CN(C(=O)C4CCCC4)C[C@@H]23)cc1 | 0.4 | –
O=C(C1CCCC1)N1C[C@@H]2CC=C(c3ccc(CCN4CCCC4)cc3)[C@@H]2C1 | 3 | –
O=C(NC1CCCC1)N1C[C@@H]2CC=C(c3ccc(CCN4CCCC4)cc3)[C@@H]2C1 | 16 | –
C1=C(c2ccc(CCN3CCCC3)cc2)[C@@H]2CN(CC3CC3)C[C@@H]2C1 | – | Tmax [3]: 6 h; Ki (Histamine H3 receptor [5]): 1 nM; half-life [4]: 6 h; Ki (Histamine H3 receptor [6]): 0.9 nM
O=C(N1CCOCC1)N1C[C@@H]2CC=C(c3ccc(CCN4CCCC4)cc3)[C@@H]2C1 | 12 | –

From ChEMBL document CHEMBL1158153, “Novel H3 receptor antagonists with improved pharmacokinetic profiles” (Bioorg Med Chem Lett, 2008)
